Measured values reported in patent US20240124427A1, “HYDROXYHETEROCYCLOALKANE-CARBAMOYL DERIVATIVES” (Idorsia Pharmaceuticals Ltd, priority 2021, published 2024).

biological target: human Gal-3 (hGal-3) (Homo sapiens (Human), UniProt P17931); assay: Competitive binding assay: biotinylated hGal-3 binding to microplate-adsorbed asialofetuin (ASF); conditions: Activity on hGal-3; mean values of several measurements; mixture of diastereomers measured where not separated
Procedure: The inhibitory activity of compounds is determined in competitive binding assays. This spectrophotometric assay measures the binding of biotinylated human Gal-3 (hGal-3) or human Gal-1 (hGal-1), respectively, to a microplate-adsorbed glycoprotein, asialofetuin (ASF) (Proc Natl Acad Sci USA. 2013 Mar 26;110(13):5052-7.). Alternatively, and preferably, a human Gal-1 version in which all six cysteines are substituted by serines may be used.
Briefly, compounds are serially diluted in DMSO (working dilutions).
Plates are incubated for 3 hours at 4° C., then washed with cold assay buffer (3×50 uL), incubated for 1 hour with 25 μL/well of a streptavidin-peroxidase solution (diluted in assay buffer to 80 ng/mL) at 4° C., followed by further washing steps with assay buffer (3×50 uL). Finally, 25 μL/well of ABTS substrate is added.
The calculated IC50 values may fluctuate depending on the daily assay performance. Fluctuations of this kind are known to those skilled in the art. IC50 values from several measurements are given as mean values.

human Gal-3 (hGal-3), sequence (P17931 whole entry): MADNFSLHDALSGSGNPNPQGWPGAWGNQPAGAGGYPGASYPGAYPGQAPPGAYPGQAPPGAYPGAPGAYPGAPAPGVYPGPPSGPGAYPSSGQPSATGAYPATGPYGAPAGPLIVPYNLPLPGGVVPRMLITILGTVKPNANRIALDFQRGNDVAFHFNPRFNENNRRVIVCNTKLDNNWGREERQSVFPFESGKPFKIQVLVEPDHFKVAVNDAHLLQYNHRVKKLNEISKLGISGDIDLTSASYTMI

For CO[C@@H]1[C@@H](n2cc(-c3ccc(Br)c(F)c3F)nn2)[C@@H](O)[C@@H](CO)O[C@H]1C(=O)N(c1cc(C)cc(Br)c1)[C@@H]1COC[C@H]1O [Example 43, (2R,3R,4S,5R,6R)-4-(4-(4-bromo-2,3-difluorophenyl)-1H-1,2,3-triazol-1-yl)-N-(3-bromo-5-methylphenyl)-5-hydroxy-6-(hydroxymethyl)-N-((3R,4S)-4-hydroxytetrahydrofuran-3-yl)-3-methoxytetrahydro-2H-pyran-2-carboxamide], which IC50 is on record?
The IC50 was 0.033 µM.

For CO[C@@H]1[C@@H](n2cc(-c3ccc(Cl)c(Cl)c3)nn2)[C@@H](O)[C@@H](CO)O[C@H]1C(=O)N(c1cc(Cl)cc(Cl)c1)[C@H]1COC[C@@H]1O [Example 26, (2R,3R,4S,5R,6R)-N-(3,5-dichlorophenyl)-4-(4-(3,4-dichlorophenyl)-1H-1,2,3-triazol-1-yl)-5-hydroxy-6-(hydroxymethyl)-N-((3S,4R)-4-hydroxytetrahydrofuran-3-yl)-3-methoxytetrahydro-2H-pyran-2-carboxamide], which IC50 is on record?
The IC50 was 0.162 µM.

With CO[C@@H]1[C@@H](n2cc(-c3cc(F)c(F)c(F)c3)nn2)[C@@H](O)[C@@H](CO)O[C@H]1C(=O)N(c1cc(Cl)cc(Cl)c1)[C@@H]1CNC[C@H]1O [Example 66, (2R,3R,4S,5R,6R)-N-(3,5-dichlorophenyl)-5-hydroxy-6-(hydroxymethyl)-N-((3R,4R)-4-hydroxypyrrolidin-3-yl)-3-methoxy-4-(4-(3,4,5-trifluorophenyl)-1H-1,2,3-triazol-1-yl)tetrahydro-2H-pyran-2-carboxamide] as the compound, how does the IC50 read?
Its IC50 is 0.182 µM.

How did the IC50 turn out when CO[C@@H]1[C@@H](n2cc(-c3cc(F)c(F)c(F)c3)nn2)[C@@H](O)[C@@H](CO)O[C@H]1C(=O)N(c1cc(Br)cc(C#N)c1)[C@@H]1CN(C(C)=O)C[C@H]1O [Example 78, (2R,3R,4S,5R,6R)-N-((3R,4R)-1-acetyl-4-hydroxypyrrolidin-3-yl)-N-(3-bromo-5-cyanophenyl)-5-hydroxy-6-(hydroxymethyl)-3-methoxy-4-(4-(3,4,5-trifluorophenyl)-1H-1,2,3-triazol-1-yl)tetrahydro-2H-pyran-2-carboxamide] was run?
Its IC50 is 0.071 µM.

For CO[C@@H]1[C@@H](n2cc(-c3cc(F)c(Cl)c(F)c3)nn2)[C@@H](O)[C@@H](CO)O[C@H]1C(=O)N(c1cc(Br)cc(Br)c1)[C@@H]1COC[C@H]1O [Example 52, (2R,3R,4S,5R,6R)-4-(4-(4-chloro-3,5-difluorophenyl)-1H-1,2,3-triazol-1-yl)-N-(3,5-dibromophenyl)-5-hydroxy-6-(hydroxymethyl)-N-((3R,4S)-4-hydroxytetrahydrofuran-3-yl)-3-methoxytetrahydro-2H-pyran-2-carboxamide], which IC50 is on record?
The IC50 was 0.086 µM.

For CO[C@@H]1[C@@H](n2cc(-c3cc(F)c(Cl)c(F)c3)nn2)[C@@H](O)[C@@H](CO)O[C@H]1C(=O)N(c1cc(C)cc(Br)c1)[C@@H]1COC[C@H]1O [Example 54, (2R,3R,4S,5R,6R)-N-(3-bromo-5-methylphenyl)-4-(4-(4-chloro-3,5-difluorophenyl)-1H-1,2,3-triazol-1-yl)-5-hydroxy-6-(hydroxymethyl)-N-((3R,4S)-4-hydroxytetrahydrofuran-3-yl)-3-methoxytetrahydro-2H-pyran-2-carboxamide], which IC50 is on record?
Its IC50 is 0.089 µM.

CO[C@@H]1[C@@H](n2cc(-c3cc(F)c(F)c(F)c3)nn2)[C@@H](O)[C@@H](CO)O[C@H]1C(=O)N(c1cc(Br)cc(Br)c1)[C@H]1COC[C@@H]1O [Example 6, (2R,3R,4S,5R,6R)-N-(3,5-dibromophenyl)-5-hydroxy-6-(hydroxymethyl)-N-((3S,4R)-4-hydroxytetrahydrofuran-3-yl)-3-methoxy-4-(4-(3,4,5-trifluorophenyl)-1H-1,2,3-triazol-1-yl)tetrahydro-2H-pyran-2-carboxamide] was tested. Which IC50 did it give?
Its IC50 is 0.053 µM.

CO[C@@H]1[C@@H](n2cc(-c3ccc(C)c(F)c3F)nn2)[C@@H](O)[C@@H](CO)O[C@H]1C(=O)N(c1cc(Br)cc(C#N)c1)[C@@H]1COC[C@H]1O [Example 49, (2R,3R,4S,5R,6R)-N-(3-bromo-5-cyanophenyl)-4-(4-(2,3-difluoro-4-methylphenyl)-1H-1,2,3-triazol-1-yl)-5-hydroxy-6-(hydroxymethyl)-N-((3R,4S)-4-hydroxytetrahydrofuran-3-yl)-3-methoxytetrahydro-2H-pyran-2-carboxamide] was tested. Which IC50 did it give?
The IC50 was 0.018 µM.

CO[C@@H]1[C@@H](n2cc(-c3ccc(C)c(F)c3F)nn2)[C@@H](O)[C@@H](CO)O[C@H]1C(=O)N(c1cc(Cl)cc(Cl)c1)[C@@H]1COC[C@H]1O [Example 48, (2R,3R,4S,5R,6R)-N-(3,5-dichlorophenyl)-4-(4-(2,3-difluoro-4-methylphenyl)-1H-1,2,3-triazol-1-yl)-5-hydroxy-6-(hydroxymethyl)-N-((3R,4S)-4-hydroxytetrahydrofuran-3-yl)-3-methoxytetrahydro-2H-pyran-2-carboxamide] was tested. Which IC50 did it give?
Its IC50 is 0.029 µM.

CO[C@@H]1[C@@H](n2cc(-c3cc(F)c(F)c(F)c3)nn2)[C@@H](O)[C@@H](CO)O[C@H]1C(=O)N(c1cc(Cl)cc(C#N)c1)[C@H]1CCOC[C@@H]1O [Example 100, (2R,3R,4S,5R,6R)-N-(3-chloro-5-cyanophenyl)-5-hydroxy-6-(hydroxymethyl)-N-((3R,4S)-3-hydroxytetrahydro-2H-pyran-4-yl)-3-methoxy-4-(4-(3,4,5-trifluorophenyl)-1H-1,2,3-triazol-1-yl)tetrahydro-2H-pyran-2-carboxamide] was tested. Which IC50 did it give?
The IC50 was 0.016 µM.

With CCN1C[C@H](O)[C@@H](N(C(=O)[C@@H]2O[C@H](CO)[C@H](O)[C@H](n3cc(-c4cc(F)c(F)c(F)c4)nn3)[C@H]2OC)c2cc(C)cc(Br)c2)C1 [Example 97, (2R,3R,4S,5R,6R)-N-(3-bromo-5-methylphenyl)-N-((3S,4S)-1-ethyl-4-hydroxypyrrolidin-3-yl)-5-hydroxy-6-(hydroxymethyl)-3-methoxy-4-(4-(3,4,5-trifluorophenyl)-1H-1,2,3-triazol-1-yl)tetrahydro-2H-pyran-2-carboxamide] as the compound, how does the IC50 read?
Its IC50 is 0.024 µM.

CO[C@@H]1[C@@H](n2cc(-c3ccc(Cl)c(Cl)c3)nn2)[C@@H](O)[C@@H](CO)O[C@H]1C(=O)N(c1cc(C)cc(Br)c1)[C@H]1COC[C@@H]1O [Example 29, (2R,3R,4S,5R,6R)-N-(3-bromo-5-methylphenyl)-4-(4-(3,4-dichlorophenyl)-1H-1,2,3-triazol-1-yl)-5-hydroxy-6-(hydroxymethyl)-N-((3S,4R)-4-hydroxytetrahydrofuran-3-yl)-3-methoxytetrahydro-2H-pyran-2-carboxamide] was tested. Which IC50 did it give?
The IC50 was 0.153 µM.

How did the IC50 turn out when COc1cc(C#N)cc(N(C(=O)[C@@H]2O[C@H](CO)[C@H](O)[C@H](n3cc(-c4cc(F)c(F)c(F)c4)nn3)[C@H]2OC)[C@H]2COC[C@@H]2O)c1 [Example 9, (2R,3R,4S,5R,6R)-N-(3-cyano-5-methoxyphenyl)-5-hydroxy-6-(hydroxymethyl)-N-((3S,4R)-4-hydroxytetrahydrofuran-3-yl)-3-methoxy-4-(4-(3,4,5-trifluorophenyl)-1H-1,2,3-triazol-1-yl)tetrahydro-2H-pyran-2-carboxamide] was run?
Its IC50 is 0.101 µM.

How did the IC50 turn out when CO[C@@H]1[C@@H](n2cc(-c3cc(F)c(F)c(F)c3)nn2)[C@@H](O)[C@@H](CO)O[C@H]1C(=O)N(c1cccc(I)c1)[C@@H]1COC[C@H]1O [Example 32, (2R,3R,4S,5R,6R)-5-hydroxy-6-(hydroxymethyl)-N-((3R,4S)-4-hydroxytetrahydrofuran-3-yl)-N-(3-iodophenyl)-3-methoxy-4-(4-(3,4,5-trifluorophenyl)-1H-1,2,3-triazol-1-yl)tetrahydro-2H-pyran-2-carboxamide] was run?
Its IC50 is 0.13 µM.

Which IC50 does the source give for CO[C@@H]1[C@@H](n2cc(-c3cc(F)c(Cl)c(F)c3)nn2)[C@@H](O)[C@@H](CO)O[C@H]1C(=O)N(c1cc(Cl)cc(Cl)c1)[C@H]1COC[C@@H]1O [Example 22, (2R,3R,4S,5R,6R)-4-(4-(4-chloro-3,5-difluorophenyl)-1H-1,2,3-triazol-1-yl)-N-(3,5-dichlorophenyl)-5-hydroxy-6-(hydroxymethyl)-N-((3S,4R)-4-hydroxytetrahydrofuran-3-yl)-3-methoxytetrahydro-2H-pyran-2-carboxamide] here?
Its IC50 is 0.05 µM.

CO[C@@H]1[C@@H](n2cc(-c3cc(F)c(F)c(F)c3)nn2)[C@@H](O)[C@@H](CO)O[C@H]1C(=O)N(c1cc(C)cc(Br)c1)[C@H]1CN(S(C)(=O)=O)C[C@@H]1O [Example 98, (2R,3R,4S,5R,6R)-N-(3-bromo-5-methylphenyl)-5-hydroxy-N-((3S,4S)-4-hydroxy-1-(methylsulfonyl)pyrrolidin-3-yl)-6-(hydroxymethyl)-3-methoxy-4-(4-(3,4,5-trifluorophenyl)-1H-1,2,3-triazol-1-yl)tetrahydro-2H-pyran-2-carboxamide] was tested. Which IC50 did it give?
The IC50 was 0.029 µM.

Which IC50 does the source give for CO[C@@H]1[C@@H](n2cc(-c3cc(F)c(C)c(F)c3)nn2)[C@@H](O)[C@@H](CO)O[C@H]1C(=O)N(c1cc(C)cc(Br)c1)[C@H]1CN(C(C)=O)C[C@@H]1O [Example 75, (2R,3R,4S,5R,6R)-N-((3S,4S)-1-acetyl-4-hydroxypyrrolidin-3-yl)-N-(3-bromo-5-methylphenyl)-4-(4-(3,5-difluoro-4-methylphenyl)-1H-1,2,3-triazol-1-yl)-5-hydroxy-6-(hydroxymethyl)-3-methoxytetrahydro-2H-pyran-2-carboxamide] here?
Its IC50 is 0.022 µM.
